Reference: ChEMBL document CHEMBL1126836, “Antiviral activity of C-alkylated purine nucleosides obtained by cross-coupling with tetraalkyltin reagents” (1993)
Values after ≈ are worked out from the molar mass of the structure shown.

Legend:
Format in all cases: functional
Conditions in all cases: Homo sapiens
E6SM [1] = assay: Tested for minimum inhibitory concentration against HSV-1 (KOS strain) in E6SM cells
E6SM [2] = assay: Tested for minimum inhibitory concentration against HSV-2 ([…] strain) in E6SM cells
E6SM [3] = assay: Tested for minimum inhibitory concentration against Vaccinia virus in E6SM cells
E6SM [4] = assay: Tested for minimum inhibitory concentration against vesicular stomatitis virus (VSV) in E6SM cells.
E6SM [5] = assay: Tested for minimum cytotoxic concentration on virus-induced cytopathicity in E6SM cells
HeLa [6] = assay: Tested for minimum cytotoxic concentration on RSV (respiratory syncytial virus)-induced cytopathicity in HeLa cells
HeLa [7] = assay: Tested for minimum inhibitory concentration against RSV (respiratory syncytial virus) in HeLa cells
E6SM [8] = assay: Tested for minimum inhibitory concentration against vesicular stomatitis virus (VSV) in E6SM cells
HeLa [9] = assay: Tested for minimum inhibitory concentration against RSV in HeLa cells
E6SM [10] = assay: Tested for minimum inhibitor concentration against vesicular stomatitis virus (VSV) in E6SM cells
HeLa [11] = assay: Tested for minimum inhibitor concentration against RSV in HeLa cells
E6SM [12] = assay: Tested for minimum inhibitor concentration against vesicular stomatitis virus (VSV) in E6SM cells.

| SMILES | MIC (E6SM [1]) | MIC (E6SM [2]) | MIC (E6SM [3]) | MIC (E6SM [4]) | MCC (E6SM [5]) | MCC (HeLa [6]) | MIC (HeLa [7]) | MIC (E6SM [8]) | MIC (HeLa [9]) | MIC (E6SM [10]) | MIC (HeLa [11]) | MIC (E6SM [12]) |
| --- | --- | --- | --- | --- | --- | --- | --- | --- | --- | --- | --- | --- |
| C=Cc1nc2c(N)ncnc2n1C1CCC(CO)O1 (configuration not stated) | > 100 µg/mL | > 20 µg/mL | – | – | – | – | – | – | – | – | – | – |
| Cc1nc2c(N)ncnc2n1C1CCC(CO)O1 (configuration not stated) | > 100 µg/mL | > 20 µg/mL | – | – | – | – | – | – | – | – | – | – |
| Cc1ncnc2c1ncn2[C@@H]1O[C@H](CO)[C@@H](O)[C@H]1O | 0.4 µg/mL (≈ 1.5 µM) | – | 0.04 µg/mL (≈ 0.15 µM) | 0.4 µg/mL (≈ 1.5 µM) | 1 µg/mL | 0.8 µg/mL | 0.4 µg/mL (≈ 1.5 µM) | – | – | – | – | – |
| Nc1nccc2c1ncn2[C@@H]1O[C@H](CO)[C@@H](O)[C@H]1O | > 400 µg/mL | – | 2 µg/mL (≈ 7.51 µM) | – | > 400 µg/mL | – | – | 0.7 µg/mL (≈ 2.63 µM) | – | – | – | – |
| C=Cc1nc2c(N)ncnc2n1[C@@H]1O[C@H](CO)[C@@H](O)[C@H]1O | 2 µg/mL (≈ 6.82 µM) | 40 µg/mL (≈ 136 µM) | 7 µg/mL (≈ 23.9 µM) | – | > 400 µg/mL | 70 µg/mL | – | – | 4 µg/mL (≈ 13.6 µM) | – | – | – |
| CCc1nc(N)c2ncn(C3O[C@H](CO)[C@@H](O)[C@H]3O)c2n1 (some centres not stated) | > 10 µg/mL | – | 7 µg/mL (≈ 23.7 µM) | – | > 10 µg/mL | 4 µg/mL | – | – | – | > 10 µg/mL | 0.8 µg/mL (≈ 2.71 µM) | – |
| C=Cc1ncnc2c1ncn2C1O[C@H](CO)[C@@H](O)[C@H]1O (some centres not stated) | 2 µg/mL (≈ 7.19 µM) | – | > 4 µg/mL | > 4 µg/mL | 10 µg/mL | 4 µg/mL | – | – | > 4 µg/mL | – | – | – |
| CCc1nc2c(N)ncnc2n1C1O[C@H](CO)[C@@H](O)[C@H]1O (some centres not stated) | > 100 µg/mL | – | 0.2 µg/mL (≈ 0.677 µM) | – | > 100 µg/mL | 100 µg/mL | – | > 200 µg/mL | 10 µg/mL (≈ 33.9 µM) | – | – | – |
| Cc1nc2c(N)ncnc2n1C1O[C@H](CO)[C@@H](O)[C@H]1O (some centres not stated) | > 100 µg/mL | – | 0.2 µg/mL (≈ 0.711 µM) | – | > 200 µg/mL | 20 µg/mL | – | > 200 µg/mL | 4 µg/mL (≈ 14.2 µM) | – | – | – |
| O=c1[nH]c(=O)n([C@H]2C[C@H](O)[C@@H](CO)O2)cc1/C=C/Br [BRIVUDINE] | 0.02 µg/mL (≈ 0.06 µM) | – | 0.4 µg/mL (≈ 1.2 µM) | – | > 400 µg/mL | – | – | – | – | – | – | > 400 µg/mL |
| NC(=O)c1ncn([C@@H]2O[C@H](CO)[C@@H](O)[C@H]2O)n1 [RIBAVIRIN] | > 300 µg/mL | – | 70 µg/mL (≈ 287 µM) | – | > 400 µg/mL | – | – | – | – | 20 µg/mL (≈ 81.9 µM) | – | – |
